Values of other authors as cited in article PMC11101992 (Clinical and Translational Science, 2024).

## CN[C@@H]1COc2c(S(=O)(=O)NC(=O)Nc3c4c(cc5c3CCC5)CCC4)cnn2C1 [GDC‐2394]
900 mg
  healthy subjects with rash: 22%

## CN1CCC[C@]1(C)/C=C/S(=O)(=O)NC(=O)Nc1c2c(cc3c1CCC3)CCC2 [ZYIL1]
Early clinical trials
  drug‐related skin reactions (in words): did not yet report any drug‐related skin reactions
IL‐1β release; healthy subjects
  IL‐1β release inhibition: > 90%

## CS(=O)(=O)CCC#N [dapansutrile]
IL‐1β release; healthy subjects and patients with gout flare
  IL‐1β release reduction (in words): only partially reduced
